Eight cell lines from the supplement of paper PMC10307832 can be followed below.

What all share (assay): relative viability (nuclei count vs DMSO), 5 days (fraction); higher = more cells survive
Compound in the assay “Everolimus + Palbociclib”: CO[C@H]1C[C@@H]2CC[C@@H](C)[C@@](O)(O2)C(=O)C(=O)N2CCCC[C@H]2C(=O)O[C@H]([C@H](C)C[C@@H]2CC[C@@H](OCCO)[C@H](OC)C2)CC(=O)[C@H](C)/C=C(\C)[C@@H](O)[C@@H](OC)C(=O)[C@H](C)C[C@H](C)/C=C/C=C/C=C/1C [Everolimus] + CC(=O)c1c(C)c2cnc(Nc3ccc(N4CCNCC4)cn3)nc2n(C2CCCC2)c1=O [Palbociclib] (partner 0.5 µM)
The method in brief: (§1)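 Relative viability equals treated-well nuclei counts divided by vehicle-well nuclei counts. Counts came from 4× images of lung cancer cell lines grown in 1536-well plates for 5 days after pin-tool dosing on the day after seeding. Dosing used one drug alone or a fixed anchor-drug dose plus five library-drug doses (not always all listed) in √10 steps, and values are medians of duplicate plates.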

Compound in the assay “Everolimus + Crizotinib”: CO[C@H]1C[C@@H]2CC[C@@H](C)[C@@](O)(O2)C(=O)C(=O)N2CCCC[C@H]2C(=O)O[C@H]([C@H](C)C[C@@H]2CC[C@@H](OCCO)[C@H](OC)C2)CC(=O)[C@H](C)/C=C(\C)[C@@H](O)[C@@H](OC)C(=O)[C@H](C)C[C@H](C)/C=C/C=C/C=C/1C [Everolimus] + C[C@@H](Oc1cc(-c2cnn(C3CCNCC3)c2)cnc1N)c1c(Cl)ccc(F)c1Cl [Crizotinib] (partner 1 µM)
The method in brief:
as §1

Compound in the assay “Everolimus + AZD7762”: CO[C@H]1C[C@@H]2CC[C@@H](C)[C@@](O)(O2)C(=O)C(=O)N2CCCC[C@H]2C(=O)O[C@H]([C@H](C)C[C@@H]2CC[C@@H](OCCO)[C@H](OC)C2)CC(=O)[C@H](C)/C=C(\C)[C@@H](O)[C@@H](OC)C(=O)[C@H](C)C[C@H](C)/C=C/C=C/C=C/1C [Everolimus] + NC(=O)Nc1cc(-c2cccc(F)c2)sc1C(=O)N[C@H]1CCCNC1 [AZD7762] (partner 0.2 µM)
The method in brief:
as §1

Compound in the assay “Everolimus + Vorinostat”: CO[C@H]1C[C@@H]2CC[C@@H](C)[C@@](O)(O2)C(=O)C(=O)N2CCCC[C@H]2C(=O)O[C@H]([C@H](C)C[C@@H]2CC[C@@H](OCCO)[C@H](OC)C2)CC(=O)[C@H](C)/C=C(\C)[C@@H](O)[C@@H](OC)C(=O)[C@H](C)C[C@H](C)/C=C/C=C/C=C/1C [Everolimus] + O=C(CCCCCCC(=O)Nc1ccccc1)NO [Vorinostat] (partner 1 µM)
In short, it runs like this: as §1

201T: the relative viability in the assay with Everolimus + Palbociclib (first compound 0.01 µM) was determined as 0.322; with Everolimus + Palbociclib (first compound 0.03162 µM), 0.306; with Everolimus + Palbociclib (first compound 0.1 µM) it was 0.274; with Everolimus + Palbociclib (first compound 0.3162 µM), 0.306; with Everolimus + Palbociclib (first compound 1 µM), 0.231; in the assay with Everolimus + Crizotinib (first compound 0.01 µM) it was 0.945. For the same cell line, the relative viability is 0.984 with Everolimus + Crizotinib (first compound 0.03162 µM); 0.926 with Everolimus + Crizotinib (first compound 0.1 µM); 0.962 in the assay with Everolimus + Crizotinib (first compound 0.3162 µM); 0.977 with Everolimus + Crizotinib (first compound 1 µM); 0.466 with Everolimus + AZD7762 (first compound 0.01 µM); 0.476 with Everolimus + AZD7762 (first compound 0.03162 µM). Moreover, the relative viability was found to be 0.407 with Everolimus + AZD7762 (first compound 0.1 µM); 0.421 with Everolimus + AZD7762 (first compound 0.3162 µM); 0.47 with Everolimus + AZD7762 (first compound 1 µM); 0.844 in the assay with Everolimus + Vorinostat (first compound 0.01 µM); 0.908 in the assay with Everolimus + Vorinostat (first compound 0.03162 µM); 0.81 with Everolimus + Vorinostat (first compound 0.1 µM). The relative viability with Everolimus + Vorinostat (first compound 0.3162 µM) amounted to 0.806; with Everolimus + Vorinostat (first compound 1 µM) it was 0.809.
Consider A549, for which the relative viability with Everolimus + Crizotinib (first compound 0.01 µM) amounted to 0.416; with Everolimus + Crizotinib (first compound 0.03162 µM), 0.415; with Everolimus + Crizotinib (first compound 0.1 µM), 0.306; with Everolimus + Crizotinib (first compound 0.3162 µM), 0.401; with Everolimus + Crizotinib (first compound 1 µM), 0.369.
In the case of A-427, the relative viability was 0.474 with Everolimus + Palbociclib (first compound 0.01 µM); 0.546 in the assay with Everolimus + Palbociclib (first compound 0.03162 µM); 0.445 in the assay with Everolimus + Palbociclib (first compound 0.1 µM); 0.48 with Everolimus + Palbociclib (first compound 0.3162 µM); 0.557 with Everolimus + Palbociclib (first compound 1 µM); 0.776 with Everolimus + Crizotinib (first compound 0.01 µM). The relative viability with Everolimus + Crizotinib (first compound 0.03162 µM) is 0.768; with Everolimus + Crizotinib (first compound 0.1 µM) it was 0.745; with Everolimus + Crizotinib (first compound 0.3162 µM), 0.704; in the assay with Everolimus + Crizotinib (first compound 1 µM), 0.675; with Everolimus + AZD7762 (first compound 0.01 µM) it was 0.498; in the assay with Everolimus + AZD7762 (first compound 0.03162 µM) it was 0.527. Moreover, the relative viability with Everolimus + AZD7762 (first compound 0.1 µM) was determined as 0.587; in the assay with Everolimus + AZD7762 (first compound 0.3162 µM), 0.446; with Everolimus + AZD7762 (first compound 1 µM) it was 0.595; with Everolimus + Vorinostat (first compound 0.01 µM), 0.781; with Everolimus + Vorinostat (first compound 0.03162 µM) it was 0.817; in the assay with Everolimus + Vorinostat (first compound 0.1 µM), 0.751. Further, the relative viability with Everolimus + Vorinostat (first compound 0.3162 µM) was 0.829; with Everolimus + Vorinostat (first compound 1 µM), 0.843.
In the case of ABC-1, the relative viability in the assay with Everolimus + Palbociclib (first compound 0.01 µM) came to 0.468; with Everolimus + Palbociclib (first compound 0.1 µM), 0.43; with Everolimus + Palbociclib (first compound 1 µM) it was 0.598; with Everolimus + Crizotinib (first compound 0.01 µM), 0.74; with Everolimus + Crizotinib (first compound 0.03162 µM), 0.799; with Everolimus + Crizotinib (first compound 0.1 µM), 0.709. For the same cell line, the relative viability came to 0.584 in the assay with Everolimus + Crizotinib (first compound 0.3162 µM); 0.761 with Everolimus + Crizotinib (first compound 1 µM); 0.667 with Everolimus + AZD7762 (first compound 0.01 µM); 0.479 with Everolimus + AZD7762 (first compound 0.03162 µM); 0.747 in the assay with Everolimus + AZD7762 (first compound 0.1 µM); 0.702 with Everolimus + AZD7762 (first compound 0.3162 µM). Besides, the relative viability in the assay with Everolimus + AZD7762 (first compound 1 µM) was found to be 0.89; in the assay with Everolimus + Vorinostat (first compound 0.01 µM) it was 0.56; with Everolimus + Vorinostat (first compound 0.1 µM), 0.741; with Everolimus + Vorinostat (first compound 1 µM), 0.941.
On to BEN, for which the relative viability in the assay with Everolimus + Palbociclib (first compound 0.01 µM) stood at 0.442; with Everolimus + Palbociclib (first compound 0.03162 µM) it was 0.421; with Everolimus + Palbociclib (first compound 0.1 µM) it was 0.443; with Everolimus + Palbociclib (first compound 0.3162 µM), 0.438; with Everolimus + Palbociclib (first compound 1 µM), 0.463; with Everolimus + Crizotinib (first compound 0.01 µM) it was 0.573. For the same cell line, the relative viability with Everolimus + Crizotinib (first compound 0.03162 µM) worked out at 0.391; in the assay with Everolimus + Crizotinib (first compound 0.1 µM), 0.311; with Everolimus + Crizotinib (first compound 0.3162 µM), 0.387; with Everolimus + Crizotinib (first compound 1 µM), 0.328; in the assay with Everolimus + AZD7762 (first compound 0.01 µM), 0.377; with Everolimus + AZD7762 (first compound 0.03162 µM), 0.394. Besides, the relative viability with Everolimus + AZD7762 (first compound 0.1 µM) worked out at 0.417; in the assay with Everolimus + AZD7762 (first compound 0.3162 µM), 0.41; with Everolimus + AZD7762 (first compound 1 µM) it was 0.444; in the assay with Everolimus + Vorinostat (first compound 0.01 µM), 0.401; in the assay with Everolimus + Vorinostat (first compound 0.03162 µM), 0.337; with Everolimus + Vorinostat (first compound 0.1 µM), 0.368. Also, the values for the relative viability in the assay with Everolimus + Vorinostat (first compound 0.3162 µM) and with Everolimus + Vorinostat (first compound 1 µM) were 0.353 and 0.391, respectively.
For CAL-12T, the relative viability turned out to be 0.461 with Everolimus + Palbociclib (first compound 0.01 µM); 0.236 with Everolimus + Palbociclib (first compound 0.03162 µM); 0.152 in the assay with Everolimus + Palbociclib (first compound 0.1 µM); 0.217 in the assay with Everolimus + Palbociclib (first compound 0.3162 µM); 0.388 in the assay with Everolimus + Palbociclib (first compound 1 µM); 0.432 with Everolimus + Crizotinib (first compound 0.01 µM). Besides, the relative viability with Everolimus + Crizotinib (first compound 0.03162 µM) was 0.569; with Everolimus + Crizotinib (first compound 0.1 µM) it was 0.233; with Everolimus + Crizotinib (first compound 0.3162 µM) it was 0.401; with Everolimus + Crizotinib (first compound 1 µM), 0.265; in the assay with Everolimus + AZD7762 (first compound 0.01 µM), 0.62; in the assay with Everolimus + AZD7762 (first compound 0.03162 µM) it was 0.529. Also, the relative viability was 0.497 with Everolimus + AZD7762 (first compound 0.1 µM); 0.446 with Everolimus + AZD7762 (first compound 0.3162 µM); 0.644 in the assay with Everolimus + AZD7762 (first compound 1 µM); 0.267 in the assay with Everolimus + Vorinostat (first compound 0.01 µM); 0.29 in the assay with Everolimus + Vorinostat (first compound 0.03162 µM); 0.237 in the assay with Everolimus + Vorinostat (first compound 0.1 µM). Besides, the relative viability with Everolimus + Vorinostat (first compound 0.3162 µM) was determined as 0.321; in the assay with Everolimus + Vorinostat (first compound 1 µM), 0.318.
Regarding COR-L23, the relative viability with Everolimus + Palbociclib (first compound 0.01 µM) was 0.224; in the assay with Everolimus + Palbociclib (first compound 0.03162 µM) it was 0.27; with Everolimus + Palbociclib (first compound 0.1 µM), 0.233; with Everolimus + Palbociclib (first compound 0.3162 µM), 0.271; with Everolimus + Palbociclib (first compound 1 µM) it was 0.218; with Everolimus + Crizotinib (first compound 0.01 µM), 0.515. In addition, the relative viability in the assay with Everolimus + Crizotinib (first compound 0.03162 µM) was found to be 0.597; with Everolimus + Crizotinib (first compound 0.1 µM), 0.623; with Everolimus + Crizotinib (first compound 0.3162 µM), 0.666; with Everolimus + Crizotinib (first compound 1 µM) it was 0.635; in the assay with Everolimus + Vorinostat (first compound 0.01 µM), 0.322; with Everolimus + Vorinostat (first compound 0.03162 µM) it was 0.336. Also, the relative viability was 0.308 in the assay with Everolimus + Vorinostat (first compound 0.1 µM), 0.381 in the assay with Everolimus + Vorinostat (first compound 0.3162 µM) and 0.367 with Everolimus + Vorinostat (first compound 1 µM).
Take COR-L 105: the relative viability was 0.465 with Everolimus + Palbociclib (first compound 0.01 µM); 0.368 in the assay with Everolimus + Palbociclib (first compound 0.03162 µM); 0.365 in the assay with Everolimus + Palbociclib (first compound 0.1 µM); 0.344 with Everolimus + Palbociclib (first compound 0.3162 µM); 0.343 in the assay with Everolimus + Palbociclib (first compound 1 µM); 0.549 in the assay with Everolimus + Crizotinib (first compound 0.01 µM). The relative viability in the assay with Everolimus + Crizotinib (first compound 0.03162 µM) amounted to 0.642; in the assay with Everolimus + Crizotinib (first compound 0.1 µM), 0.469; with Everolimus + Crizotinib (first compound 0.3162 µM), 0.544; with Everolimus + Crizotinib (first compound 1 µM) it was 0.49; with Everolimus + Vorinostat (first compound 0.01 µM), 0.58; with Everolimus + Vorinostat (first compound 0.03162 µM), 0.465. For the same cell line, the figures for the relative viability with Everolimus + Vorinostat (first compound 0.1 µM), in the assay with Everolimus + Vorinostat (first compound 0.3162 µM) and in the assay with Everolimus + Vorinostat (first compound 1 µM) were 0.535, 0.572 and 0.59, respectively.
